Source: the supplement of paper PMC10627819

What was measured:
S. aureus DSM 20231 [1] = test: Bliss interaction score (quartile over a dose matrix) (fitness difference); higher = more antagonism (negative = synergy)
Summary of the method: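 Values were capped at 1 after dividing OD595 at stationary-phase entry by the plate's robust no-drug mean. This ratio is fitness, and single-drug fitness was inferred from the combination data. The Bliss score is observed minus product-expected fitness, given as quartiles over technical, biological and donor/recipient replicates.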

S. pneumoniae D39V = test: fitness (endpoint OD595 vs no drug) (fraction); higher = more growth
Summary of the method: (§1)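 Cultures at OD595 0.01 were dispensed into 384-well plates in TSB, LB Lennox or CY and incubated at 37 °C. Every 30 min for 14 h, OD595 was read and corrected by the first reading. Fitness is the optical density at entry into stationary phase relative to the robust mean of no-drug control wells, capped at 1.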

S. aureus DSM 20231 [2] = test: as above
Summary of the method: as §1

S. aureus Newman = test: as above
Summary of the method: as §1
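For Bliss interaction score (quartile over a dose matrix) in this document: first quartile when negative (synergy) and third quartile when positive (antagonism).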

COCCOC(=O)C1=C(C)NC(C)=C(C(=O)OC/C=C/c2ccccc2)C1c1cccc([N+](=O)[O-])c1 (stereo not drawn) [Cilnidipine] + CC(=O)NC[C@H]1CN(c2ccc(N3CCOCC3)c(F)c2)C(=O)O1 [Linezolid]
Settings | Bliss interaction score
S. aureus DSM 20231 [1] | -0.254

CN(C)[C@@H]1C(O)=C(C(N)=O)C(=O)[C@@]2(O)C(O)=C3C(=O)c4c(O)ccc(Cl)c4[C@@](C)(O)[C@H]3C[C@@H]12 [Clortetracycline] + CCCc1nc2c(C)cc(-c3nc4ccccc4n3C)cc2n1Cc1ccc(-c2ccccc2C(=O)O)cc1 [Telmisartan]
Settings | Bliss interaction score
S. aureus DSM 20231 [1] | -0.261

CC(=O)Oc1ccccc1C(=O)O [Acetylsalicylicacid] + CC(C)c1c(C(=O)Nc2ccccc2)c(-c2ccccc2)c(-c2ccc(F)cc2)n1CC[C@@H](O)C[C@@H](O)CC(=O)O [Atorvastatin]
Settings | Bliss interaction score
S. aureus DSM 20231 [1] | 0.213

COCCOC(=O)C1=C(C)NC(C)=C(C(=O)OC/C=C/c2ccccc2)C1c1cccc([N+](=O)[O-])c1 (stereo not drawn) [Cilnidipine] + CC1(C)S[C@@H]2[C@H](NC(=O)Cc3ccccc3)C(=O)N2[C@H]1C(=O)O [PenicillinG]
Settings | Bliss interaction score
S. aureus DSM 20231 [1] | -0.229

CO/N=C(\C(=O)N[C@@H]1C(=O)N2C(C(=O)O)=C(COC(C)=O)CS[C@H]12)c1csc(N)n1 [Cefotaxime] + Nc1ccc(O)c(C(=O)O)c1 [Mesalamine]
Settings | Bliss interaction score
S. aureus DSM 20231 [1] | 0.16

CO/N=C(\C(=O)N[C@@H]1C(=O)N2C(C(=O)O)=C(COC(N)=O)CS[C@H]12)c1ccco1 [Cefuroxime] + CCCSc1nc(N[C@@H]2C[C@H]2c2ccc(F)c(F)c2)c2nnn([C@@H]3C[C@H](OCCO)[C@@H](O)[C@H]3O)c2n1 [Ticagrelor]
Settings | Bliss interaction score
S. aureus DSM 20231 [1] | 0.137

COc1cccc2c1C(=O)c1c(O)c3c(c(O)c1C2=O)C[C@@](O)(C(=O)CO)C[C@@H]3O[C@H]1C[C@H](N)[C@H](O)[C@H](C)O1 [Doxorubicin] + CO/N=C(\C(=O)N[C@@H]1C(=O)N2C(C(=O)[O-])=C(C[N+]3(C)CCCC3)CS[C@H]12)c1csc(N)n1 [Cefepime]
fitness
Settings | first compound 0.25 µg/mL | first compound 0.5 µg/mL | first compound 0.625 µg/mL | first compound 1 µg/mL | first compound 1.25 µg/mL | first compound 2.5 µg/mL
S. aureus DSM 20231 [2], partner 0.125 µg/mL | – | – | 0.861 | – | 0.828 | 0.721
S. aureus DSM 20231 [2], partner 0.25 µg/mL | – | – | 0.826 | – | 0.814 | 0.656
S. aureus DSM 20231 [2], partner 0.5 µg/mL | – | – | 0.741 | – | 0.71 | 0.62
S. aureus Newman, partner 0.125 µg/mL | – | – | 0.783 | – | 0.773 | 0.716
S. aureus Newman, partner 0.25 µg/mL | – | – | 0.762 | – | 0.744 | 0.696
S. aureus Newman, partner 0.5 µg/mL | – | – | 0.659 | – | 0.732 | 0.683
S. pneumoniae D39V, partner 0.007 µg/mL | 0.937 | 0.949 | – | 0.957 | – | –
S. pneumoniae D39V, partner 0.0078 µg/mL | ≥ 1 | ≥ 1 | – | 0.938 | – | –
S. pneumoniae D39V, partner 0.014 µg/mL | 0.912 | 0.935 | – | 0.942 | – | –
S. pneumoniae D39V, partner 0.0155 µg/mL | 0.974 | 0.994 | – | 0.917 | – | –
S. pneumoniae D39V, partner 0.028 µg/mL | 0.783 | 0.846 | – | 0.825 | – | –

CO/N=C(\C(=O)N[C@@H]1C(=O)N2C(C(=O)O)=C(COC(C)=O)CS[C@H]12)c1csc(N)n1 [Cefotaxime] + CO[C@@]12[C@H](COC(N)=O)C3=C(C(=O)C(C)=C(N)C3=O)N1C[C@@H]1N[C@@H]12 [Mitomycin C]
Settings | fitness
S. aureus DSM 20231 [2], first compound 0.039 µg/mL, partner 0.0156 µg/mL | 0.581
S. aureus DSM 20231 [2], first compound 0.039 µg/mL, partner 0.0312 µg/mL | 0.532
S. aureus DSM 20231 [2], first compound 0.039 µg/mL, partner 0.0625 µg/mL | 0.607
S. aureus DSM 20231 [2], first compound 0.078 µg/mL, partner 0.0156 µg/mL | 0.581
S. aureus DSM 20231 [2], first compound 0.078 µg/mL, partner 0.0312 µg/mL | 0.577
S. aureus DSM 20231 [2], first compound 0.078 µg/mL, partner 0.0625 µg/mL | 0.537
S. aureus DSM 20231 [2], first compound 0.156 µg/mL, partner 0.0156 µg/mL | 0.538
S. aureus DSM 20231 [2], first compound 0.156 µg/mL, partner 0.0312 µg/mL | 0.562
S. aureus DSM 20231 [2], first compound 0.156 µg/mL, partner 0.0625 µg/mL | 0.54
S. aureus DSM 20231 [2], first compound 0.312 µg/mL, partner 0.0156 µg/mL | 0.483
S. aureus DSM 20231 [2], first compound 0.312 µg/mL, partner 0.0312 µg/mL | 0.495
S. aureus DSM 20231 [2], first compound 0.312 µg/mL, partner 0.0625 µg/mL | 0.457
S. aureus Newman, first compound 0.078 µg/mL, partner 0.0156 µg/mL | 0.577
S. aureus Newman, first compound 0.078 µg/mL, partner 0.0312 µg/mL | 0.574
S. aureus Newman, first compound 0.078 µg/mL, partner 0.0625 µg/mL | 0.422
S. aureus Newman, first compound 0.156 µg/mL, partner 0.0156 µg/mL | 0.48
S. aureus Newman, first compound 0.156 µg/mL, partner 0.0312 µg/mL | 0.414
S. aureus Newman, first compound 0.156 µg/mL, partner 0.0625 µg/mL | 0.234
S. aureus Newman, first compound 0.312 µg/mL, partner 0.0156 µg/mL | 0.313
S. aureus Newman, first compound 0.312 µg/mL, partner 0.0312 µg/mL | 0.22
S. aureus Newman, first compound 0.312 µg/mL, partner 0.0625 µg/mL | 0.138
S. pneumoniae D39V, first compound 0.0018 µg/mL, partner 0.001075 µg/mL | 0.978
S. pneumoniae D39V, first compound 0.0018 µg/mL, partner 0.002 µg/mL | 0.789
S. pneumoniae D39V, first compound 0.0018 µg/mL, partner 0.00215 µg/mL | 0.949
S. pneumoniae D39V, first compound 0.0018 µg/mL, partner 0.004 µg/mL | 0.81
S. pneumoniae D39V, first compound 0.0018 µg/mL, partner 0.0043 µg/mL | 0.863
S. pneumoniae D39V, first compound 0.0018 µg/mL, partner 0.008 µg/mL | 0.702
S. pneumoniae D39V, first compound 0.0035 µg/mL, partner 0.001075 µg/mL | 0.976
S. pneumoniae D39V, first compound 0.0035 µg/mL, partner 0.002 µg/mL | 0.781
S. pneumoniae D39V, first compound 0.0035 µg/mL, partner 0.00215 µg/mL | 0.922
S. pneumoniae D39V, first compound 0.0035 µg/mL, partner 0.004 µg/mL | 0.767
S. pneumoniae D39V, first compound 0.0035 µg/mL, partner 0.0043 µg/mL | 0.838
S. pneumoniae D39V, first compound 0.0035 µg/mL, partner 0.008 µg/mL | 0.647
S. pneumoniae D39V, first compound 0.007 µg/mL, partner 0.001075 µg/mL | 0.895
S. pneumoniae D39V, first compound 0.007 µg/mL, partner 0.002 µg/mL | 0.694
S. pneumoniae D39V, first compound 0.007 µg/mL, partner 0.00215 µg/mL | 0.834
S. pneumoniae D39V, first compound 0.007 µg/mL, partner 0.004 µg/mL | 0.679
S. pneumoniae D39V, first compound 0.007 µg/mL, partner 0.0043 µg/mL | 0.802
S. pneumoniae D39V, first compound 0.007 µg/mL, partner 0.008 µg/mL | 0.637

fitness, S. aureus Newman, one replicate
Settings | first compound 0.625 µg/mL | first compound 1.25 µg/mL | first compound 2.5 µg/mL
partner 0.0156 µg/mL | 0.0313 | 0.0209 | 0.0581
partner 0.0312 µg/mL | 0.025 | 0.0017 | 0.0229
partner 0.0625 µg/mL | 0.0258 | 0 | 0.0272

C[C@@H]1O[C@@H]1P(=O)(O)O [Fosfomycin] + CO[C@@]12[C@H](COC(N)=O)C3=C(C(=O)C(C)=C(N)C3=O)N1C[C@@H]1N[C@@H]12 [Mitomycin C]
fitness
Settings | first compound 0.781 µg/mL | first compound 1.25 µg/mL | first compound 1.562 µg/mL | first compound 2.5 µg/mL | first compound 3.124 µg/mL | first compound 5 µg/mL
S. aureus DSM 20231 [2], partner 0.0156 µg/mL | 0.607 | – | 0.494 | – | 0.43 | –
S. aureus DSM 20231 [2], partner 0.0312 µg/mL | 0.57 | – | 0.497 | – | 0.318 | –
S. aureus DSM 20231 [2], partner 0.0625 µg/mL | 0.49 | – | 0.35 | – | 0.165 | –
S. aureus Newman, partner 0.0156 µg/mL | 0.576 | – | 0.452 | – | 0.124 | –
S. aureus Newman, partner 0.0312 µg/mL | 0.543 | – | 0.363 | – | 0.0839 | –
S. aureus Newman, partner 0.0625 µg/mL | 0.373 | – | 0.114 | – | 0.0142 | –
S. pneumoniae D39V, partner 0.001075 µg/mL | – | 0.903 | – | 0.869 | – | 0.772
S. pneumoniae D39V, partner 0.002 µg/mL | – | 0.858 | – | 0.812 | – | 0.694
S. pneumoniae D39V, partner 0.00215 µg/mL | – | 0.843 | – | 0.837 | – | 0.733
S. pneumoniae D39V, partner 0.004 µg/mL | – | 0.793 | – | 0.77 | – | 0.617
S. pneumoniae D39V, partner 0.0043 µg/mL | – | 0.748 | – | 0.734 | – | 0.652
S. pneumoniae D39V, partner 0.008 µg/mL | – | 0.65 | – | 0.648 | – | 0.574
